We go through twelve compounds from patent US4663332A, “5-substituted N-alkylated tetrazoles” (Hoffman-La Roche Inc., priority 1985, dated 1987).

Experiment [1] concerns the target T1, PAF binding to dog platelets (Canis lupus familiaris, UniProt A0A8I3NSH0).
T1 construct: from tissue; host or cells: washed platelets from citrate-treated dog blood
T1 sequence (A0A8I3NSH0 1-343): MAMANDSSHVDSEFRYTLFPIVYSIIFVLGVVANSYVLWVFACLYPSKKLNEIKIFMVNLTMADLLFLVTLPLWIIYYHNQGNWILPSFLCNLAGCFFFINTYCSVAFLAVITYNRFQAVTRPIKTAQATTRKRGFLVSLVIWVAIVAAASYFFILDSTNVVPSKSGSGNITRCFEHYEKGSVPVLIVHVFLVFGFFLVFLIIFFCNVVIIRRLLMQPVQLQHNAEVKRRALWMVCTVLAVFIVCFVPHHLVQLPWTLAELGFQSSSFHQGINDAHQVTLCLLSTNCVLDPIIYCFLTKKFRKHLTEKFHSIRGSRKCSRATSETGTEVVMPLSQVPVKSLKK
Briefly: PAF Radioreceptor Binding Assay (PAF Binding). The conditions noted are these: inhibition of 3H-PAF binding to dog platelets, 10 min, room temperature. As for the experimental part: (1) PAF Radioreceptor Binding Assay (PAF Binding)
Platelet rich plasma is prepared by centrifugation of citrate-treated dog blood. Acidification to pH 6.5 with 0.15M citric acid and centrifugation for 10 minutes at 1000×g yields a platelet pellet which is then washed by resuspension in EDTA-Phosphate Buffered Saline (PBS) and recentrifuged. The washed platelet preparation is adjusted to 2×10^7 platelets/50 μl in 0.1% bovine serum albumin-PBS.
To a 400 μl microfuge tube containing 50 μl silicone oil (specific gravity 1.023) is added buffer, PAF standard or analog, or an extract to bring the aqueous volume to 150 μl. 50 μl of ^3 H-PAF (10,000 cpm, 45 Ci/mM) is added followed by 2×10^7 dog platelets. After mixing, incubating for 10 minutes at room temperature, and centrifuging for 1 minute in a Beckman Microfuge B (8000×g), the pellet is removed by clipping off the tip of the tube, the platelets are solubilized with 200 μl of 50% methanol and counted in 10 ml of Aquasol. […] Results obtained with representative copounds of the present invention in this assay are summarized hereinafter in Tables I and II. IC50 is drug concentration (μMolar) which inhibits PAF binding to dog platelets by 50%.

The target of a further experiment is T2, TXA2 synthase (Homo sapiens, UniProt P24557).
T2 construct: using microsomal fractions from human platelets as enzyme source; from tissue; host or cells: microsomal fractions from human platelets
T2 sequence (P24557 1-533): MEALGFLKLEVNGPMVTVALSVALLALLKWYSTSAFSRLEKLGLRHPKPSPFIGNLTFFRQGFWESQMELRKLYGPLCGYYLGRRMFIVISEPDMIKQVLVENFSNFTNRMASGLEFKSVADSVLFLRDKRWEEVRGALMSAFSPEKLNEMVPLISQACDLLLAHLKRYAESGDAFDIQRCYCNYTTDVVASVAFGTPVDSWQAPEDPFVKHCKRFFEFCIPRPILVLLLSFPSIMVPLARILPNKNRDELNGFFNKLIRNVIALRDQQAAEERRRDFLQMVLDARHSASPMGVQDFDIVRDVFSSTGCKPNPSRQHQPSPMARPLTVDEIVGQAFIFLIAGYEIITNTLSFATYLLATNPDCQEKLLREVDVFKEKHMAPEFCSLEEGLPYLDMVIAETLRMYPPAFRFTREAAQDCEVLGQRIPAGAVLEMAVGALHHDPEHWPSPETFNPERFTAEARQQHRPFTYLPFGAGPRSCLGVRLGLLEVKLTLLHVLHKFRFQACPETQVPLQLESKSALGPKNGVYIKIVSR
Briefly: Thromboxane Synthase Inhibition, In Vitro (TXA2 Synth. Inhib.). Type of experiment: biochemical. The conditions noted are these: human platelet microsomes, 10 μM 14C-PGH2, 22° C., 2 min. The protocol: (2) Thromboxane Synthase Inhibition, In Vitro (TXA2 Synth. Inhib.)
TXA2 synthase activity is measured by following the conversion of ^14 C-prostaglandin endoperoxide (PGH2) to ^14 C-thromboxane A2 (TXA2) using microsomal fractions from human platelets as enzyme source. In the aqueous incubation medium, the TXA2 decomposes rapidly into TXB2. The amount of TXA2 synthase is adjusted so that under the conditions of the assay approximately 80-90% of the substrate, PGH2, is converted to product in control tubes. To prepare ^14 C-PGH2, ^14 C-AA (50-60 mCi/mmole; Rose Chem.) is incubated with sheep seminal vesicular gland microsomes for 1.5 minutes at 37° C. and then the ^14 C-PGH2 is extracted with diethylether, purified on columns oof Sephadex LH-20 or silicic acid, and stored in acetone at -70° C. Incubations are done as follows. Sufficient ^14 C-PGH2 to yield a final substrate concentration of 10 μM (30,000 cpm) is added to the incubation tubes and then the acetone is removed under nitrogen. The tubes are placed in an ice bath and then 215 μl of ice cold phosphate buffered saline, 10 μl of ethanol (control) or of test drug in ethanol, and 25 μl of the microsomal suspension are added with mixing in that order as rapidly as possible. The tubes are incubated at 22° C. for 2 minutes, the reaction is stopped and then the radioactive products and the unconverted PGH2 are extracted and analyzed by thin layer chromatography. […] The amount of ^14 C-PGH2 converted to products was used as a measure of TXA2 synthase activity. Inhibitors were tested initially at a final concentration 100 μM. Results obtained with representative compounds of the present invention in this assay are summarized hereafter in Tables I and II. IC50 is the drug concentration (μMolar) which inhibits TXA2 activity by 50%.

Experiment [2] concerns PAF. Briefly: Inhibition of PAF-Induced Platelet Aggregation (Inhib. of PAF Platelet Reduction). Type of experiment: in vivo, guinea pig. The conditions noted are these: Cavia porcellus, iv, 3 mg/kg i.v. As for the experimental part: (5) Inhibition of PAF-Induced Platelet Aggregation (Inhib. of PAF Platelet Reduction)
Guinea pigs (anesthetized) are set up to withdraw blood for platelet counting. The animal is allowed to stabilize after completion of surgical procedures. The carotid catheter is allowed to bleed back blood and then is filled, prior to each sample withdrawal with sodium citrate 3.8% (0.15 ml). Blood (0.25 ml) is withdrawn 30 seconds prior to the PAF challenge and at 15, 30 and 60 seconds after the PAF challenge. This first PAF challenge is used as the control, assuming sufficient decreases in platelet count are observed. The amount of PAF used will be approximately 50 ng/kg, however, this can be increased to achieve the desired decreases in platelet count. Fifteen minutes after the control PAF challenge, intravenous drug dosing begins, with animals being dosed at 30 minute intervals; PAF challenge follows 15 minutes after each intravenous dose. Three intravenous drug doses are used in each experiment. Initial drug doses are 1, 3 and 10 mg/kg i.v. Inhibition of PAF platelet reduction at 3 mg/kg i.v. for representative compounds of the invention are summarized hereinafter in Tables I and II. Percent inhibition is [formula]

Experiment [3] deals with PAF. Briefly: Inhibition of PAF Induced Guinea Pig Bronchoconstriction Test (Inhib. of PAF Broncho.). Type of experiment: in vivo, guinea pig (Hartley strain). The conditions noted are these: Cavia porcellus, iv; 1 mg/kg i.v. (1 min. pretreat). As for the experimental part: (3) Inhibition of PAF Induced Guinea Pig Bronchoconstriction Test (Inhib. of PAF Broncho.)
Male guinea pigs (Hartley strain) weighing 300 to 500 g are anesthetized with urethane (2 g/kg) intraperitoneally and a polyethylene cannula is inserted into the jugular vein for drug administration. Tracheal pressure is recorded from a cannula inserted in the trachea and connected to a Statham pressure transducer. Propranolol (0.1 mg/kg) is administered intravenously five minutes before challenge with synthetic PAF, the animal's skeletal muscles are then paralyzed with succinylcholine (1.2 mg/kg i.v.), and the animal is respirated using a Harvard small animal respirator operating at 40 breaths/min and 2.5 cc stroke volume. Under these conditions PAF induces a dose-dependent increase in ventilatory pressure over a dose range of 0.5 to 5 μg/kg i.v. For screening purposes animals are challenged with a single dose of PAF (10 μg/kg i.v.).
The peak increase in ventilatory pressure (cm H2 O) is recorded for three control animals and five drug-treated animals and the percent inhibition determined from the following formula [formula] Results obtained with representative compounds of the invention in this test are summarized hereinafter in Tables I and II.

As usually defined, the IC50 is the concentration needed to halve the response being measured. Low values mean greater potency in that assay, high ones weaker potency in that assay. Usually inhibition in vivo stands for the change of the read-out against control, counted positive when it falls.

As for `CCCc1c(O)c(C(C)=O)cc(Cl)c1OCCCCCc1nnnn1CCCCc1cccnc1` [Cl H 5 4 3-pyridyl, 1-[5-chloro-2-hydroxy-3-propyl-4-[5-[1-[4-(3-pyridinyl)butyl]-1H-tetrazol-5-yl]pentyloxy]phenyl]ethanone], the IC50 is 0.14 µM in experiment [1] and 1 µM against TXA2 synthase. The inhibition in vivo at 3 mg/kg in the experiment on PAF [2] came out at 7%.

For the compound `CCCc1c(OCCCCCc2nnn(CCCc3cccnc3)n2)ccc(C(C)=O)c1O` [5 3 3-pyridyl, 1-[2-Hydroxy-3-propyl-4-[5-[2-[3-(3-pyridinyl)propyl]-2H-tetrazol-5-yl]pentyloxy]phenyl]ethanone], the figures for the IC50 (in experiment [1]; at TXA2 synthase) were > 1 µM and 0.1 to 1 µM, respectively. Further, the inhibition in vivo at 1 mg/kg in the experiment on PAF [3] came out at 38 ± 11%.

On to `CCCc1c(OCCCCCc2nnnn2CCCc2cccnc2)ccc(C(C)=O)c1OC(C)=O` [H Ac 5 3 3-pyridyl, 1-[2-Acetoxy-3-propyl-4-[5-[1-[3-(3-pyridinyl)propyl]-1H-tetrazol-5-yl]pentyloxy]phenyl]ethanone], for which the IC50 in experiment [1] is 0.18 µM; against TXA2 synthase it was 0.1 to 1 µM. Besides, the inhibition in vivo at 1 mg/kg with PAF [3] stood at 84.8 ± 11%. Besides, the inhibition in vivo at 3 mg/kg with PAF [2] was 31%.

As for `CCCc1c(OCCCCc2nnnn2CCCn2ccnc2)ccc(C(C)=O)c1O` [H H 4 3 1-imidazolyl, 1-[2-Hydroxy-3-propyl-4-[4-[1-[3-(1H-imidazol-1-yl)propyl]-1H-tetrazol-5-yl]butoxy]phenyl]ethanone], the IC50 in experiment [1] was 0.175 µM; against TXA2 synthase, 0.1 to 1 µM. In addition, the inhibition in vivo at 1 mg/kg in the experiment with PAF [3] came out at 8 ± 8%. Further, in the experiment on PAF [2], the inhibition in vivo at 3 mg/kg was determined as 3%.

In the case of `CCCc1c(OCCCc2nnnn2CCCCc2cccnc2)ccc(C(C)=O)c1O` [H H 3 4 3-pyridyl, 1-[2-Hydroxy-3-propyl-4-[3-[1-[4-(3-pyridinyl)butyl]-1H-tetrazol-5-yl]propoxy]phenyl]ethanone], the IC50 in experiment [1] was 0.45 µM; at TXA2 synthase, 0.1 to 1 µM. Moreover, in the experiment on PAF [3], the inhibition in vivo at 1 mg/kg came to 59 ± 12%. In the experiment with PAF [2], the inhibition in vivo at 3 mg/kg was determined as 40%.

In the case of `CCCc1c(OCCCCCc2nnnn2CCCc2cccnc2)ccc(C(C)=O)c1O` [H H 5 3 3-pyridyl, 1-[2-hydroxy-3-propyl-4-[5-[1-[3-(3-pyridinyl)propyl]-1H-tetrazol-5-yl]pentyloxy]phenyl]ethanone], the concentration for half-maximal inhibition (IC50) in experiment [1] is 0.15 µM; at TXA2 synthase, 0.1 to 1 µM. Moreover, the inhibition in vivo at 1 mg/kg in the experiment on PAF [3] was determined as 96 ± 1%. In addition, the inhibition in vivo at 3 mg/kg with PAF [2] turned out to be 12%.

As to `CCCc1c(OCCCc2nnnn2CCCc2cccnc2)ccc(C(C)=O)c1O` [H H 3 3 3-pyridyl, 1-[2-Hydroxy-3-propyl-4-[3-[1-[3-(3-pyridinyl)propyl]-1H-tetrazol-5-yl]propoxy]phenyl]ethanone], the half-maximal inhibitory concentration (IC50) was 0.25 µM in experiment [1] and 0.01 to 0.1 µM against TXA2 synthase. In addition, the inhibition in vivo at 1 mg/kg in the experiment with PAF [3] worked out at 53 ± 17%.

With `CCCc1c(OCCCCCc2nnn(CCCCc3cccnc3)n2)ccc(C(C)=O)c1O` [5 4 3-pyridyl, 1-[2-Hydroxy-3-propyl-4-[5-[2-[4-(3-pyridinyl)butyl]-2H-tetrazol-5-yl]pentyloxy]phenyl]ethanone], the results for the half-maximal inhibitory concentration (IC50) (in experiment [1]; against TXA2 synthase) were 0.48 µM and 0.1 to 1 µM, respectively. Also, in the experiment on PAF [3], the inhibition in vivo at 1 mg/kg amounted to 94 ± 6%.

`CCCc1c(O)c(C(C)=O)cc(Cl)c1OCc1cccc(-c2nnnn2CCCc2cccnc2)c1` [1-[5-chloro-2-hydroxy-3-propyl-4-[[3-[1-[3-(3-pyridinyl)propyl]-1H-tetrazol-5-yl]phenyl]methoxy]phenyl]ethanone] returned an IC50 in experiment [1] of 0.025 µM. Moreover, in the experiment with PAF [3], the inhibition in vivo at 1 mg/kg was 43 ± 21%. In addition, the inhibition in vivo at 3 mg/kg with PAF [2] worked out at 25%.

As for `CCCc1c(OCCCCc2nnnn2CCc2cccnc2)ccc(C(C)=O)c1O` [H H 4 2 3-pyridyl, 1-[2-Hydroxy-3-propyl-4-[4-[1-[2-(3-pyridinyl)ethyl]-1H-tetrazol-5-yl]butoxy]phenyl]ethanone], the IC50 in experiment [1] was 1 µM. Also, in the experiment on PAF [3], the inhibition in vivo at 1 mg/kg was -15 ± 6%. For the same compound, the inhibition in vivo at 3 mg/kg in the experiment on PAF [2] stood at 48%.

Regarding `CCCc1c(OCCCCCc2nnnn2CCCCc2cccnc2)ccc(C(C)=O)c1O` [H H 5 4 3-pyridyl, 1-[2-Hydroxy-3-propyl-4-[5-[1-[4-(3-pyridinyl)butyl]-1H-tetrazol-5-yl]pentyloxy]phenyl]ethanone], the IC50 in experiment [1] is 0.275 µM; at TXA2 synthase it was 0.1 to 1 µM. In addition, the inhibition in vivo at 1 mg/kg in the experiment on PAF [3] came out at 58 ± 14%. Also, the inhibition in vivo at 3 mg/kg with PAF [2] turned out to be 0%.

Regarding `CCCc1c(OCc2cccc(-c3nnnn3CCCc3cccnc3)c2)ccc(C(C)=O)c1O` [1-[2-hydroxy-3-propyl-4-[[3-[1-[3-(3-pyridinyl)propyl]-1H-tetrazol-5-yl]phenyl]methoxy]phenyl]ethanone], the IC50 is 0.2 µM in experiment [1] and 1 µM at TXA2 synthase.
